The conditions of data set [1]: degradation in vitamin complex liquid agent, cited from earlier work.
The conditions of data set [2]: for ln k: converted from log Kobs. How it is done:
Specifically, a graph of FIG. 185 on page 95 of the publication was cited. FIG. 1 is an Arrhenius plot of degradation of thiamine hydrochloride in a vitamin complex liquid agent, the Y axis indicates log Kobs (day^−1), and the X axis indicates 1/T (K^1). The stable periods were calculated based on the activation energy for degradation of thiamine hydrochloride in the vitamin complex liquid agent, shown in the graph.
In FIG. 1, the Y axis is indicated by not ln, but log. Therefore log Kobs was converted into ln k.
Then, −Ea/R and ln A were calculated from the ln k and 1/T (K^−1) on the X axis of FIG. 1 based on the Arrhenius equation represented by the formula (1) below.

Counter-ions that a name gives are not always drawn. Like-named read-outs stand apart in the source and are kept apart here.

With `Cc1ncc(C[n+]2csc(CCO)c2C)c(N)n1` [thiamine hydrochloride], the Kobs in data set [1] (T 20.0 ° C.) was 0.000 day⁻¹; in data set [1] (T 22.5 ° C.), 0.000 day⁻¹; in data set [1] (T 29.1 ° C.) it was 0.000 day⁻¹; in data set [1] (T 38.7 ° C.), 0.001 day⁻¹; in data set [1] (T 50.0 ° C.), 0.005 day⁻¹; in data set [1] (T 57.6 ° C.), 0.017 day⁻¹. The Kobs in data set [1] (T 67.7 ° C.) was 0.050 day⁻¹. In addition, the log10k in data set [1] (T 20.0 ° C.) is −4.100; in data set [1] (T 22.5 ° C.), −3.750; in data set [1] (T 29.1 ° C.) it was −3.400; in data set [1] (T 38.7 ° C.), −2.900; in data set [1] (T 50.0 ° C.) it was −2.300; in data set [1] (T 57.6 ° C.), −1.780. The log10k in data set [1] (T 67.7 ° C.) is −1.300. In addition, the ln k in data set [2] (T 20.0 ° C.) was −9.4406; in data set [2] (T 22.5 ° C.) it was −8.635; in data set [2] (T 29.1 ° C.) it was −7.829; in data set [2] (T 38.7 ° C.) it was −6.6775; in data set [2] (T 50.0 ° C.), −5.296; in data set [2] (T 57.6 ° C.), −4.0986. The ln k in data set [2] (T 67.7 ° C.) is −2.993. Besides, in data set [2] (intercept b of Arrhenius equation from ln k and 1/T (K^−1)), the “ln A” value turned out to be 35.139. The “−Ea/R” value in data set [2] (slope a of Arrhenius equation from ln k and 1/T (K^−1)) was −13005.
